Experimental data as given in PMC10033419, “Blocking NS3–NS4B interaction inhibits dengue virus in non-human primates” (Nature, 2023).
Where “and” joins values, the source holds several entries; their conditions need not be identical. Identical values can stand only once. Like-named read-outs stand apart in the source and are kept apart here.

Key:
[1] = test system: DENV-2 RL strain; experiment: Survival study, lethal DENV challenge with 4G2 antibody; format: in vivo, AG129 mice
[2] = test system: HIV-1 IIIB; experiment: microbe, parasite or virus in culture; format: cell-based; conditions: Human immunodeficiency virus 1, IIIB, MAGI-CCR5
[3] = test system: rVSV Indiana; experiment: microbe, parasite or virus in culture; format: cell-based, recombinant vesicular stomatitis virus; conditions: Vesicular stomatitis virus, A549
[4] = test system: DENV-1 G3 Malaysia; format: cell-based; conditions: T108I in NS4B
[5] = test system: NS4A-2K-NS4B precursor cleavage; experiment: microbe, parasite or virus in culture; format: cell-based, DENV-2

COc1cc(N[C@H](C(=O)c2c[nH]c3ccc(OC(F)(F)F)cc23)c2ccc(Cl)cc2OC)cc(S(C)(=O)=O)c1 [JNJ-1802]
% Survival ([1]; 802R_3, BID, d p.i. 17): 100% | % Survival ([1]; 802R_3, BID, d p.i. 18): 100% | % Survival ([1]; 802R_3, BID, d p.i. 19): 100% | % Survival ([1]; 802R_3, BID, d p.i. 20): 100% | % Survival ([1]; 802R_3, BID, d p.i. 21): 100% | % Survival ([1]; 802R_3, BID, d p.i. 22): 90% | % Survival ([1]; 802R_3, BID, d p.i. 23): 90% | % Survival ([1]; 802R_3, BID, d p.i. 24): 80% | % Survival ([1]; 802R_3, BID, d p.i. 25 = end of study): 80% | % Survival ([1]; 802R_10, BID, d p.i. 0): 100% | % Survival ([1]; 802R_10, BID, d p.i. 1): 100% | % Survival ([1]; 802R_10, BID, d p.i. 2): 100% | % Survival ([1]; 802R_10, BID, d p.i. 4): 100% | % Survival ([1]; 802R_10, BID, d p.i. 5): 100% | % Survival ([1]; 802R_10, BID, d p.i. 6): 100% | % Survival ([1]; 802R_10, BID, d p.i. 7): 100% | % Survival ([1]; 802R_10, BID, d p.i. 8): 100% | % Survival ([1]; 802R_10, BID, d p.i. 9): 100% | % Survival ([1]; 802R_10, BID, d p.i. 10): 100% | % Survival ([1]; 802R_10, BID, d p.i. 11): 100% | % Survival ([1]; 802R_10, BID, d p.i. 12): 100% | % Survival ([1]; 802R_10, BID, d p.i. 13): 100% | % Survival ([1]; 802R_10, BID, d p.i. 14): 100% | % Survival ([1]; 802R_10, BID, d p.i. 15): 80% | % Survival ([1]; 802R_10, BID, d p.i. 16): 80% | % Survival ([1]; 802R_10, BID, d p.i. 17): 80% | % Survival ([1]; 802R_10, BID, d p.i. 18): 80% | % Survival ([1]; 802R_10, BID, d p.i. 19): 80% | % Survival ([1]; 802R_10, BID, d p.i. 20): 80% | % Survival ([1]; 802R_10, BID, d p.i. 21): 80% | % Survival ([1]; 802R_10, BID, d p.i. 22): 80% | % Survival ([1]; 802R_10, BID, d p.i. 23): 80% | % Survival ([1]; 802R_10, BID, d p.i. 24): 80% | % Survival ([1]; 802R_10, BID, d p.i. 25 = end of study): 80% | EC50 [2]: 1600 nM | EC50 [3]: 6900 nM | EC90 [4]: 3.04 ± 0.69 nM | EC50 ([5]; Dengue virus, read-out: EC50 2k-4B Input, Mean, WT): 1.72 nM | 2K-NS4B proportion in lysate ([5]; L94F, 10 nM): 18.25% and 11.99% and 16.55% | 2K-NS4B proportion in lysate ([5]; L94F, 500 nM): 4.03% and 6.25% and 1.49% | NS4A-2K-NS4B proportion in lysate ([5]; L94F, 500 nM): 75.65% and 50.22% and 78.28% | 2K-NS4B proportion in lysate ([5]; L94F, 1000 nM): 3.64% and 2.91% and 2.22% | NS4A-2K-NS4B proportion in lysate ([5]; L94F, 1000 nM): 77.84% and 43.16% and 74.46% | EC50 ([5]; L94F, read-out: EC50 2k-4B Input, Mean): 108 nM | 2K-NS4B proportion in lysate ([5]; T108I, 0.5 nM): 23.11% and 13.79% and 13.87% | NS4A-2K-NS4B proportion in lysate ([5]; T108I, 0.5 nM): 44.71% and 43.02% and 68.40% | NS4A-2K-NS4B proportion in lysate ([5]; T108I, 1 nM): 72.39% and 47.37% and 49.13% | 2K-NS4B proportion in lysate ([5]; T108I, 5 nM): 9.35% and 15.53% and 10.95% | NS4A-2K-NS4B proportion in lysate ([5]; T108I, 5 nM): 71.83% and 55.33% and 51.65% | NS4B proportion in lysate ([5]; T108I, 5 nM): 18.83% and 29.14% and 37.41% | 2K-NS4B proportion in lysate ([5]; T108I, 10 nM): 5.10% and 8.23% and 10.83% | NS4A-2K-NS4B proportion in lysate ([5]; T108I, 10 nM): 71.88% and 68.85% and 55.44% | NS4B proportion in lysate ([5]; T108I, 10 nM): 23.02% and 22.91% and 33.72% | 2K-NS4B proportion in lysate ([5]; T108I, 50 nM): 3.79% and 3.62% and 3.12% | NS4A-2K-NS4B proportion in lysate ([5]; T108I, 50 nM): 72.18% and 59.64% and 51.99% | NS4B proportion in lysate ([5]; T108I, 50 nM): 24.02% and 36.74% and 44.89% | EC50 ([5]; T108I, single replicates, read-out: EC50 (2k-4B), Input): 6.08 nM and 6.88 nM and 20.9 nM | EC50 ([5]; T108I, read-out: EC50 2k-4B Input, Mean): 11.3 nM | 2K-NS4B proportion in lysate ([5]; V91A, 10 nM): 18.41% and 10.69% and 19.20% | 2K-NS4B proportion in lysate ([5]; V91A, 50 nM): 12.06% and 15.08% and 7.29% | 2K-NS4B proportion in lysate ([5]; V91A, 100 nM): 6.22% and 11.02% and 2.95% | 2K-NS4B proportion in lysate ([5]; V91A, 500 nM): 2.16% and 3.56% and 1.47% | NS4A-2K-NS4B proportion in lysate ([5]; V91A, 500 nM): 73.60% and 43.02% and 80.18% | 2K-NS4B proportion in lysate ([5]; V91A, 1000 nM): 2.06% and 2.88% and 1.78% | EC50 ([5]; V91A, single replicates, read-out: EC50 (2k-4B), Input): 44.9 nM and 134 nM and 55.6 nM | EC50 ([5]; V91A, read-out: EC50 2k-4B Input, Mean): 78 nM | 2K-NS4B proportion in lysate ([5]; WT, 0.5 nM): 20.47% and 12.95% and 13.02% | NS4A-2K-NS4B proportion in lysate ([5]; WT, 0.5 nM): 48.09% and 36.63% and 65.93% | 2K-NS4B proportion in lysate ([5]; WT, 1 nM): 5.60% and 9.33% and 12.10% | NS4A-2K-NS4B proportion in lysate ([5]; WT, 1 nM): 66.81% and 44.14% and 43.57% | NS4B proportion in lysate ([5]; WT, 1 nM): 27.59% and 46.53% and 44.33% | 2K-NS4B proportion in lysate ([5]; WT, 5 nM): 3.71% and 6.95% and 6.88% | NS4A-2K-NS4B proportion in lysate ([5]; WT, 5 nM): 60.94% and 43.36% and 51.87% | NS4B proportion in lysate ([5]; WT, 5 nM): 35.35% and 49.69% and 41.25% | 2K-NS4B proportion in lysate ([5]; WT, 10 nM): 3.62% and 6.23% and 4.49% | NS4A-2K-NS4B proportion in lysate ([5]; WT, 10 nM): 59.94% and 47.30% and 50.84% | NS4B proportion in lysate ([5]; WT, 10 nM): 36.44% and 46.47% and 44.67% | 2K-NS4B proportion in lysate ([5]; WT, 50 nM): 5.23% and 6.22% and 5.06% | NS4A-2K-NS4B proportion in lysate ([5]; WT, 50 nM): 53.55% and 57.44% and 58.39% | NS4B proportion in lysate ([5]; WT, 50 nM): 41.22% and 36.34% and 36.55% | EC50 ([5]; read-out: EC50 (2k-4B), Input, WT, single replicates): 0.491 nM and 0.62 nM and 4.06 nM
